Source: article PMC5641083, “Blockage of FOXP3 transcription factor dimerization and FOXP3/AML1 interaction inhibits T regulatory cell activity: sequence optimization of a peptide inhibitor” (Oncotarget, 2017)
Where a SMILES comes first, the peptide text is derived from it. [ ]: non-standard residue; d: D form.

Tests used:
CT26 tumor cells = assay: AH1 vaccination and CT26 tumor challenge; assay type: in vivo, BALB/c mice; settings: AH1 in IFA, peptide 10 nanomol/mice/day i.p. 10 days, challenge 10^6 CT26 cells s.c. day 10
Description: In those experiments, BALB/c mice were immunized with peptide AH1 emulsified in IFA and treated daily with saline or with 50 nanomol/mice/day of peptide P60 i.p. from day 0 to day 9 after immunization. To study the efficacy of CM-1315, our optimized version of P60, mice immunized with AH1 were treated with 10 nanomol/mice/day of P60 or CM-1315 and challenged at day 10 by s.c. injection with 10^6 CT26 tumor cells (instead of 5 × 10^5 cells used in our previous study). As control, groups of mice were injected with AH1 alone or left untreated.
For tumor rejection experiments, Hepa-129 cells (10^6 cells/mouse), were injected subcutaneously (sc) in C3H/HeN mice (n = 6). Ten days later, when the tumor reached 5 mm in diameter, mice were randomly divided into different experimental groups. A group of mice were treated i.p. with anti-PD1 antibodies (50 μg/mouse). Antibody administration was repeated one week after this first administration. A group of mice treated with anti-PD1 also received the cyclic peptide CM-1215 from days 10 to 20 (50 μg/mice/day). Tumor size, presented as the average of two perpendicular diameters (millimetres), was measured at regular intervals. Mice were sacrificed when the mean tumor diameter was greater than 20 mm. […] Tumor size was monitored twice a week with a calliper and it was expressed according to the formula V = (length × width^2)/2. […]

[1] = Metabolic stability in human liver microsomes; assay type: in vitro ADME; settings: 1 μM, estimated by first order kinetics
Description: (§1) Metabolic stability was measured by Wuxi AppTech (Shanghai, China). Briefly, peptides (1 μM, 5% MeOH in potassium phosphate buffer) were incubated with human (catalogue no. 452161 from BD Gentest) and mouse (catalogue no. M1000, Xenotech) liver microsomes at 37°C for 10 min. Liver microsomes were at a final assay concentration of 0.7 mg protein/mL. The reaction was started by the addition of 90 μL of NADP cofactor solution and stopped by the addition of 300 μL of stop solution (acetonitrile at 4°C, including 100 ng/mL tolbutamide as an internal standard) after 20 min of incubation. The samples were shaken for 5 min and then centrifuged for 20 min at 1500 g. A 100 μL aliquot of the supernatant was transferred to eight new 96-well plates with 300 μL of HPLC water and centrifuged at 1500 g for LC-MS/MS analysis (Shimadzu LC 10-AD−API 4000). An injection volume of 10 μL was added to a Phenomenex Synergi C18 column eluting with formic acid in water or acetonitrile at a flow rate of 800 μL/min. The percent loss of parent compound was calculated from the peak area ratio of the analyte/internal standard. Compounds and positive controls were tested in duplicate.

Treg cells = assay: Treg pre-treated with peptide, then Treg suppression assay; assay type: cell-based; settings: Treg incubated with peptide at 20 μM for 24 hours, washed
Source text: (§2) FOXP3 is critical for the development and function of Tregs, but also, FOXP3 can be transiently expressed in effector T cells after TCR stimulation leading to hyporesponsiveness of the effector T cell. […] We speculate that the Foxp3 inhibitory peptides may work at two levels: (i) reducing Treg function and (ii) releasing the brake of FOXP3 transient expression on effector T cells. Thus, we studied the effect of CM-1315 in T cell proliferation and IL-2 and IFN-γ production in effector T cells in response to anti-CD3 stimulation. The original P60, the optimized peptide CM-1315 and a control peptide were tested. […] We also studied the effect of the peptides directly in Tregs. Thus, freshly isolated Treg cells were pre-treated with the peptides for 24 h, and after extensive washing, they were used in conventional Treg suppression assay in coculture with effector T cells and anti-CD3 stimulation.
(§3) Supplementary Figure 4: Effect of Foxp3 inhibitory peptides in effector T cells alone. […] T cell proliferation (A) and IL-2 and IFN-γ (B and C) production in response to anti-CD3 stimulation was measured by 3H-thymidine incorporation and by ELISA respectively.
(§4) Supplementary Figure 5: Effect of FOXP3 inhibitory peptides in Treg cells. […] T cell proliferation was measured by 3H-thymidine incorporation assay. […]

[2] = Metabolic stability in mouse liver microsomes; assay type: in vitro ADME; settings: 1 μM, estimated by first order kinetics
Description: as §1

CD4+CD25-ve splenocytes = assay: Effector T cells alone stimulated with anti-CD3: proliferation, IL-2 and IFN-γ; assay type: cell-based; settings: anti-CD3 stimulation, no Treg
Source text: as §2, §3, §4

[3] = test system: AH1-specific IFN-γ producing cells; assay: AH1 immunization in CD25+ depleted mice, IFN-γ ELISPOT; assay type: in vivo; settings: mice depleted of CD25+ T cells, CM-1315 day 1 to day 7
Source text: We also studied the effect of CM-1315 peptide in vivo to improve the immune response after immunization with AH1 peptide in naïve mice and in mice depleted of CD25+ T cells. In this experiment, depletion of CD25+ T cells improved the number of AH1-specific IFN-γ producing cells.
Supplementary Figure 6: In vivo the effect of CM-1315 peptide to improve the immunogenicity of AH1 peptide vaccine.
AH1 peptide, encompassing a cytotoxic T cell epitope for H-2Ld MHC class I molecule, was emulsified in Incomplete Freund adjuvant as previously described and used to immunize groups of naïve mice and in mice depleted of CD25+ T cells (n = 4). A group of CD25 depleted mice was immunized with AH1 and treated with CM-1315 peptide from day 1 to day 7 after immunization. Ten days after, immune response against AH1 was measured by ELISPOT assay to quantify the number of IFN-γ producing cells.
(1 picture or pasted object on this page, not shown here)

half-life [1]: ~1 h
half-life [2]: ~1 h
SMILES: CSCC[C@@H]1NC(=O)[C@H](C)NC(=O)[C@H](Cc2ccccc2)NC(=O)[C@H](Cc2ccccc2)NC(=O)[C@@H]2CCCN2C(=O)[C@H](Cc2c[nH]c3ccccc23)NC(=O)[C@H](CCSC)NC(=O)[C@H](CCCCN)NC(=O)[C@H](CCCNC(=N)N)NC(=O)[C@H](Cc2ccccc2)NC(=O)[C@H](C)NC(=O)[C@H](CCC(N)=O)NC(=O)[C@H](Cc2ccccc2)NC(=O)[C@@H](C)NC(=O)[C@H](CCCNC(=N)N)NC1=O [CM-1315] (cyclo(R[dA]FQAFRKMWPFFAM))
Protection against CT26 tumor challenge (in words) (CT26 tumor cells): remained protected against challenge with CT26 tumor cells
Inhibition of suppressive activity of pre-treated Treg (in words) (Treg cells): able to inhibit significantly the suppressive activity of Treg
T cell proliferation and IL-2, IFN-γ production of effector T cells (in words) (CD4+CD25-ve splenocytes): more active than P60
Number of AH1-specific IFN-γ producing cells (in words) [3]: significantly improved this response
